Experimental data as given in paper PMC7948398, “Rapid kinetics reveal surprising flavin chemistry in bifurcating electron transfer flavoprotein from Acidaminococcus fermentans” (The Journal of Biological Chemistry, 2020).

Biological target: T1, EtfAB; EtfaB (EtfAB from which α-FAD was removed) (Acidaminococcus fermentans, UniProt D2RIQ2+D2RIQ3)
T1 construct: gene Acfer_0555; recombinant from pET-11a by autoinduction; AB heterodimer, 66 kDa; EtfAB holds α-FAD and β-FAD; EtfaB made by removing FAD from the A-subunit (phenyl Sepharose, KBr); with Electron transfer flavoprotein subunit alpha
T1 sequence (D2RIQ2 1-263): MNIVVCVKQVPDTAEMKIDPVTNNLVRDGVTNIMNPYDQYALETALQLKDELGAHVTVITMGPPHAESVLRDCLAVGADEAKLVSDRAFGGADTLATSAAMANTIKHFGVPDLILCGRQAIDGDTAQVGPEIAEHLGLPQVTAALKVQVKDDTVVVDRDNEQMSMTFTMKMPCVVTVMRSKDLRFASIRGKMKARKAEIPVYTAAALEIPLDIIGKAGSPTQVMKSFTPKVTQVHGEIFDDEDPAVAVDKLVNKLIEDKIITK
T1 sequence (D2RIQ3 1-340): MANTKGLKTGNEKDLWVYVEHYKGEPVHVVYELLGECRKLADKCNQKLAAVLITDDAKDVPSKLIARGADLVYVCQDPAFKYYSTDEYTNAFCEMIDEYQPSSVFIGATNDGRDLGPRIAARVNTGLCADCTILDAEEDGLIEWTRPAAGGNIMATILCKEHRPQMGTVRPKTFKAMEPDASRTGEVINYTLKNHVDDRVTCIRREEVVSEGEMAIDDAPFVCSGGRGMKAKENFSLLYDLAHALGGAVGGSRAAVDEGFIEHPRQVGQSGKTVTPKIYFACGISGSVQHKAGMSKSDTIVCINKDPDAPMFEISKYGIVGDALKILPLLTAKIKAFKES
Assay: anaerobic stopped-flow, kobs at […] nm versus [NADH]
Format: biochemical
Details: EtfaB form (β-FAD only, α-FAD removed), slow-reacting minor population (~16%); 50 mM potassium phosphate pH 7.0, 4 °C; site at β-FAD

SMILES: NC(=O)C1=CN([C@@H]2O[C@H](COP(=O)(O)OP(=O)(O)OC[C@H]3O[C@@H](n4cnc5c(N)ncnc54)[C@H](O)[C@@H]3O)[C@@H](O)[C@H]2O)C=CC1 [NADH]
- Kd: 3.8 ± 0.2 mM
